Results on six molecules are retold here after publication PMC9628899 (Antiviral Research, 2003).

Structures are written as SMILES. Read-outs that look alike come from different tables or passages of the source. Where only a bound is given, the exact number is not on record here.

For data set [1], the system named is cowpox virus. Also on record: species or system mice. As to conditions: mouse, in vivo.
The next data set relates to vaccinia virus. It is filed as in vivo, mice.
For data set [2], the system named is cowpox virus (CV). Put plainly: microbe, parasite or virus in culture. It is filed as cell-based. Particulars: Cowpox virus, HFF.
The conditions of data set [3]: ref Barditch-Crovo et al., 1997; cited from earlier work.
Data set [4] has as its system vaccinia virus (VV). Put plainly: microbe, parasite or virus in culture. As to conditions: Orthopoxvirus vaccinia, HFF. It is filed as cell-based.
Another data set can be described thus: in vitro. Particulars: human.
Data set [5] has as its system vaccinia virus (VV). As to conditions: read-out: EC50 Vaccinia; Table 4; ref Kern et al. (2002); cited from earlier work.
The next data set has as its system Monkeypox. As to conditions: read-out: EC50 Monkeypox; cited from earlier work.
For a further data set, the system named is Variola. As to conditions: read-out: EC50 Variola; cited from earlier work.
Data set [6] concerns cowpox virus (CV). Particulars: read-out: EC50 Cowpox; cited from earlier work.
The subject of data set [7] is cowpox virus. Particulars: mouse, in vivo, po; cited from earlier work.
The test system of data set [8] is vaccinia, cowpox, monkeypox, and variola viruses. It is filed as cell-based.

The term EC50 denotes the concentration that produces a half-maximal response.

For `Nc1ncnc2c1ncn2[C@@H]1O[C@H](CO)[C@@H](O)[C@@H]1O` [Vidarabine], the “activity in murine model of cowpox virus infection” value in the data set with cowpox virus [1] is recorded as “not active”. In the data set with vaccinia virus (data not presented), the “activity in murine model of vaccinia virus infection” value is reported as “not active”.
Turning to `CC(C)(C)C(=O)OCOP(=O)(COCCn1cnc2c(N)ncnc21)OCOC(=O)C(C)(C)C` [Adefovir dipivoxil, bis(pivaloyloxymethyl)PMEA], the EC50 in the data set with cowpox virus (CV) [2] (read-out: Cowpox virus EC50) amounted to 13 ± 8.8 µM; in the data set with cowpox virus (CV) [2] (read-out: EC50 CV) it was 13 µM; in the data set on vaccinia virus (VV) [4] (read-out: EC50 VV) it was 5.1 µM; in the data set on vaccinia virus (VV) [4] (read-out: Vaccinia virus EC50), 5.1 ± 0.7 µM. Further, in [3], the oral bioavailability result was “good oral bioavailability”. This molecule also showed a CC50 in the data set “in vitro” of 117 ± 27 µM.
In the case of `Nc1ccn(C[C@@H](CO)OCP(=O)(O)O)c(=O)n1` [Cidofovir, (S)-1(3-hydroxy-2-phosphonylmethoxypropyl) cytosine], the EC50 in the data set on vaccinia virus (VV) [5] is 46.2 ± 11.9 µM; in the data set with cowpox virus (CV) [2] (read-out: Cowpox virus EC50), 43 ± 2.5 µM; in the data set on cowpox virus (CV) [2] (read-out: EC50 CV) it was 43 µM; with vaccinia virus (VV) [4] (read-out: EC50 VV) it was 33 µM; with vaccinia virus (VV) [4] (read-out: Vaccinia virus EC50) it was 33 ± 9.1 µM; in the data set on Monkeypox, 4.6 µM. The half-maximal effective concentration (EC50) was 27.3 µM with Variola and 44.7 ± 6.3 µM with cowpox virus (CV) [6]. Further, the CC50 in “in vitro” was 278 ± 9.2 µM.
Regarding `Nc1ccn(C[C@H]2COP(=O)(O)CO2)c(=O)n1` [Cyclic HPMPC (cHPMPC), Cyclic HPMPC], the concentration giving a half-maximal response (EC50) was 50.6 ± 13.1 µM in the data set on vaccinia virus (VV) [5]; 48 ± 8 µM with cowpox virus (CV) [2] (read-out: Cowpox virus EC50); 38 ± 11 µM with vaccinia virus (VV) [4] (read-out: Vaccinia virus EC50); 63.6 µM in the data set on Monkeypox; 45.8 µM in the data set on Variola; 48.3 ± 8 µM in the data set with cowpox virus (CV) [6]. Moreover, in “in vitro”, the CC50 is > 302 µM.
`CCCCCCCCCCCCCCCCOCCCOP(=O)(O)CO[C@H](CO)Cn1ccc(N)nc1=O` [HDP-CDV, 3-hexadecyloxy-l-propanol CDV]: the EC50 is 0.8 ± 0.4 µM with vaccinia virus (VV) [5], 0.07 µM in the data set with Monkeypox, 0.1 µM in the data set with Variola and 0.6 ± 0.3 µM in the data set with cowpox virus (CV) [6]. For the same molecule, the “activity in cowpox virus infection of mice” value in the data set with cowpox virus [1] (po) is recorded as “active orally”. Further, in the data set with vaccinia virus (given orally, Kern, unpublished results), the “activity in vaccinia virus infection of mice” value is reported as “active orally”. The “activity in cowpox virus-infected mice” value in the data set with cowpox virus [7] is recorded as “active”. For the same molecule, the “active at levels -fold less than the parent molecules” value in data set [8] is reported as 50- to 200 fold.
With `CCCCCCCCCCCCCCCCOCCCOP1(=O)COC(Cn2ccc(N)nc2=O)CO1` (stereo not drawn) [HDP-cCDV, 3-hexadecyloxy-l-propanol cyclic CDV], the half-maximal effective concentration (EC50) in the data set with vaccinia virus (VV) [5] was 3.8 ± 1.5 µM; in the data set on Monkeypox, 1.8 µM; in the data set on Variola, 0.9 µM; in the data set on cowpox virus (CV) [6], 2.1 ± 1.9 µM. In addition, in data set [8], the “active at levels -fold less than the parent molecules” value is listed as 50- to 200 fold.
